Tested on: ovariectomized pregnant rats
Test: pregnancy maintenance test in rats
Assay type: in vivo
Settings: subcutaneous once daily from day 8 of pregnancy, with estrone 5 μg/kg/day
Text: Executing the Pregnancy Maintenance Test in Rats:
In pregnant rats, removal of the corpora lutea or castration induces abortion. By exogenous supplying of progestins (gestagens) in combination with a suitable dose of estrogen, pregnancy can be maintained. The pregnancy maintenance test in ovariectomized rats serves to determine peripheral gestagenic activity of a compound.
Rats are paired up during the proestrus overnight. Mating is monitored on the morning of the following day by vaginal smear inspection. The presence of sperm is considered in this case as day 1 of the beginning of pregnancy. On day 8 of pregnancy, the animals are ovariectomized under ether anesthesia. […]
At the end of the test (day 15 or day 21), the animals are sacrificed under CO2 atmosphere, and live fetuses (fetuses with beating hearts) and implantation sites (early resorptions and dead fetuses including autolysis and atrophic placentas) in both uterine horns are counted. […] In uteri without fetuses or implantation sites, the number of nidation sites is determined by staining with 10% ammonium sulfide solution. The pregnancy maintenance rate is calculated as the quotient of the number of living fetuses and the total number of nidation sites (both resorbed and dead fetuses as well as nidation sites). […]

Compound | pregnancy-maintaining dose (ED50) [mg/kg/day]
C[C@]12CCC(=O)C=C1[C@@H]1C[C@@H]1[C@H]1[C@@H]3[C@@H]4C[C@@H]4[C@@]4(CCC(=O)O4)[C@@]3(C)CC[C@@H]12 [drospirenone, 6β,7β-15β,16β-dimethylene-3-oxo-17-pregn-4-ene-21,17β-carbolactone] | 3.5
CCC12CCC3C4CCC(=O)C=C4C4CC4C3C1C1CC1C21CCC(=O)O1 (stereo not drawn) [compound 3a, 18-Methyl-6α,7α-15β,16β-dimethylene-3-oxo-19-nor-17-pregn-4-ene-21,17-carbolactone] | 0.12

Reference: patent US20090029953A1, “18-METHYL-19-NOR-17-PREGN-4-ENE-21,17-CARBOLACTONES, AS WELL AS PHARMACEUTICAL PREPARATIONS THAT CONTAIN THE LATTER” (priority 2004, published 2009)
